In the assay the target is T1, JAK3 (Homo sapiens, UniProt P52333).
T1 sequence (P52333 1-1124): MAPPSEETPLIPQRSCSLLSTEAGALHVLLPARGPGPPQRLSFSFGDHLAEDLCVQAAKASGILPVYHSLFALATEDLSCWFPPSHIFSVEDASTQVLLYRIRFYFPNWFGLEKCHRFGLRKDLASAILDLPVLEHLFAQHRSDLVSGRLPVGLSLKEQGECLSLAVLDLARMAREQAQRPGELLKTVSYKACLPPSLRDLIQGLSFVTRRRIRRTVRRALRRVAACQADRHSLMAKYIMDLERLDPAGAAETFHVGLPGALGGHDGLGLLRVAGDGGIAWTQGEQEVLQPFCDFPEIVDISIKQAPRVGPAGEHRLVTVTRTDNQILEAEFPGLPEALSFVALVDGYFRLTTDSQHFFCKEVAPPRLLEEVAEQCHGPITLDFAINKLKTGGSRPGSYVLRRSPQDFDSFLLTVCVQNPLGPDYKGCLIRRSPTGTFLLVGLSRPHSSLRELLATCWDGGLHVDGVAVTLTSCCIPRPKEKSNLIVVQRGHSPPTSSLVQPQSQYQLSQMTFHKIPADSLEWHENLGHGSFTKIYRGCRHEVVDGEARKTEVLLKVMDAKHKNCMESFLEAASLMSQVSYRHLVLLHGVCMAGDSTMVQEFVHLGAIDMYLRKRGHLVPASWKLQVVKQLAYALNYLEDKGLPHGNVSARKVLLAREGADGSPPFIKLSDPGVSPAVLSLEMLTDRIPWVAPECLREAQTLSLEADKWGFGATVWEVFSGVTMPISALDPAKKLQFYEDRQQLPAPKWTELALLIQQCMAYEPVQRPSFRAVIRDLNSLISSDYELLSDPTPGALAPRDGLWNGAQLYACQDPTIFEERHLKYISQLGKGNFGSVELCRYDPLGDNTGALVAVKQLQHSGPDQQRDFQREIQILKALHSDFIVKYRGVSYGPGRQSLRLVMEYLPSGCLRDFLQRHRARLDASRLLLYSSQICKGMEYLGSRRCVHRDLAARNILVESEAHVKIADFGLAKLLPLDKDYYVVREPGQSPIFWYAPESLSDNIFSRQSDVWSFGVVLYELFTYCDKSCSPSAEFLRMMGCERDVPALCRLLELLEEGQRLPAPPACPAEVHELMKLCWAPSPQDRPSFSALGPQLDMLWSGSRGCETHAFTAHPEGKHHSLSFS
The experiment in a line: JAK3 Inhibition Assay (33P incorporation into poly(Glu)4Tyr). Format: biochemical. The settings on record: for Ki: 1 nM JAK3, 5 μM ATP, 1 μM poly(Glu)4Tyr, 25° C. The protocol:
Compounds were screened for their ability to inhibit JAK3 using the assay shown below. Reactions were carried out in a kinase buffer containing 100 mM HEPES (pH 7.4), 1 mM DTT, 10 mM MgCl2, 25 mM NaCl, and 0.01% BSA. Substrate concentrations in the assay were 5 μM ATP (200 uCi/μmole ATP) and 1 μM poly(Glu)4Tyr. Reactions were carried out at 25° C. and 1 nM JAK3.
To each well of a 96 well polycarbonate plate was added 1.5 μl of a candidate JAK3 inhibitor along with 50 μlof kinase buffer containing 2 μM poly(Glu)4Tyr and 10 μM ATP. This was then mixed and 50 μl of kinase buffer containing 2 nM JAK3 enzyme was added to start the reaction. After 20 minutes at room temperature (25° C.), the reaction was stopped with 50 μl of 20% trichloroacetic acid (TCA) that also contained 0.4 mM ATP. The entire contents of each well were then transferred to a 96 well glass fiber filter plate using a TomTek Cell Harvester. After washing, 60 μl of scintillation fluid was added and ^33P incorporation detected on a Perkin Elmer TopCount.

Structures are written as SMILES.

Broadly, the Ki is the dissociation constant of the complex between target and ligand, obtained from inhibition or displacement. Read a high Ki as a looser hold on the target. As to `O=C(NCC(F)(F)F)[C@H]1CCCN1c1ccnc(-c2ccc(=O)[nH]c2)n1` [Compound 83], the Ki is 10 to 50 µM.

The compound `CC(C)[C@@H](Nc1ccnc(-c2c[nH]c(C(=O)N3CCCC3)c2)n1)C(=O)NCC(F)(F)F` [Compound 113] came in with a Ki of 1 to 10 µM.

For `Nc1nc(NC2CC2)nn1-c1ncc(F)c(N2CCC[C@@H]2C(=O)NCC(F)(F)F)n1` [Compound 52], the “inhibition of JAK3 at concentrations of 5.0 μM” value is “did not inhibit”.

As for `CC(C)(Nc1nc(-c2ccc(O)cc2)ncc1F)C(=O)NCC(F)(F)F` [Compound 123], the Ki is at most 1 µM.

For the compound `COc1ccc(Nc2nc(N)n(-c3nccc(NC(C)(C)C(=O)NCC(F)(F)F)n3)n2)cc1` [Compound 38], the Ki was 1 to 10 µM.

Consider `CC(C)(Nc1nc(-c2ccc(=O)[nH]c2)ncc1F)C(=O)NCC(F)(F)F` [Compound 84], for which the Ki was in the range of 10 to 50 µM.

`CC(C)(Nc1nc(-c2c[nH]c(C(=O)O)c2)ncc1F)C(=O)NCC(F)(F)F` [Compound 133] gave a Ki of 1 to 10 µM.

As for `C[C@@H](Nc1nc(-c2ccc(F)nc2)ncc1F)C(=O)NCC(F)(F)F` [Compound 19], the “inhibition of JAK3 at concentrations of 50 μM” value (“inhibition of JAK3 … of 50 μM” below) is “did not inhibit”.

Turning to `CC(C)[C@@H](Nc1nc(-c2ccc3nc(N)sc3c2)ncc1F)C(=O)NCC(F)(F)F` [Compound 78], the Ki is 1 to 10 µM.

With `COc1ccc(-c2nccc(N[C@@H](C(=O)NCC(F)(F)F)C(C)C)n2)cc1` [Compound 143], the “inhibition of JAK3 … of 50 μM” value is recorded as “did not inhibit”.

For the compound `CC(C)[C@@H](Nc1ccnc(-c2ccc3c(c2)OCCO3)n1)C(=O)NCC(F)(F)F` [Compound 146], the “inhibition of JAK3 … of 50 μM” value is recorded as “did not inhibit”.

Compound `CC(C)(Nc1ccnc(-c2c[nH]c3ccc(Cl)cc23)n1)C(=O)NCC(F)(F)F` [Compound 158] displayed a Ki of 1 to 10 µM.

Take `COc1ccc(-c2ncc(F)c(NC(C)(C)C(=O)NCC(F)(F)F)n2)cn1` [Compound 69]: the “inhibition of JAK3 … of 50 μM” value is recorded as “did not inhibit”.

In turn, `CC(C)[C@@H](Nc1ccnc(-c2ccc3nccnc3c2)n1)C(=O)NCC(F)(F)F` [Compound 164] showed a Ki of 1 to 10 µM.

Turning to `COc1ccc(Nc2nc(N)n(-c3ncc(F)c(N[C@@H](C(=O)NCC(F)(F)F)C(C)C)n3)n2)cc1` [Compound 43], the Ki lay in the range of 1 to 10 µM.

`O=C(NCC1CC1)c1cc(-c2ncc(F)c(N3CCC[C@@H]3C(=O)NCC(F)(F)F)n2)c[nH]1` [Compound 118]: the inhibitory constant (Ki) was 10 to 50 µM.

The compound `CC(C)(Nc1nc(-c2c[nH]c3ccc(Cl)cc23)ncc1F)C(=O)NCC(F)(F)F` [Compound 156] showed a Ki of 1 to 10 µM.

`O=C(NCC(F)(F)F)[C@H]1CCCN1c1ccnc(-c2c[nH]c(C(=O)N3CC=CC3)c2)n1` [Compound 139] showed a Ki of at most 1 µM.

Turning to `CC(C)[C@@H](Nc1nc(-c2c[nH]c3ccc(Cl)cc23)ncc1F)C(=O)NCC(F)(F)F` [Compound 160], the “inhibition of JAK3 … of 50 μM” value is listed as “did not inhibit”.

For `CC(=O)Nc1nc2ccc(-c3nccc(NC(C)(C)C(=O)NCC(F)(F)F)n3)cc2s1` [Compound 82], the Ki was in the range of 1 to 10 µM.

The compound `CC(C)[C@@H](Nc1nc(-c2c[nH]c(C(=O)NCc3ccccc3)c2)ncc1F)C(=O)NCC(F)(F)F` [Compound 104] returned a Ki of 1 to 10 µM.

In the case of `CC(C)(Nc1ccnc(-c2c[nH]c(C(=O)N3CC=CC3)c2)n1)C(=O)NCC(F)(F)F` [Compound 102], the Ki was at most 1 µM.

On to `COc1ccc(-c2nccc(NC(C)(C)C(=O)NCC(F)(F)F)n2)cc1` [Compound 149], for which the “inhibition of JAK3 … of 50 μM” value is “did not inhibit”.

Consider `Nc1nc(NC2CCCCC2)nn1-c1ncc(F)c(N2CCC[C@@H]2C(=O)NCC(F)(F)F)n1` [Compound 47], for which the “inhibition of JAK3 at concentrations of 5.0 μM” value is recorded as “did not inhibit”.

Consider `C[C@H](Nc1nc(-c2cccnc2)ncc1F)C(=O)NCC(F)(F)F` [Compound 4], for which the Ki fell in the range of 1 to 10 µM.

As for `C[C@@H](Nc1nc(-c2cccnc2F)ncc1F)C(=O)NCC(F)(F)F` [Compound 17], the “inhibition of JAK3 … of 50 μM” value was “did not inhibit”.

In turn, `CC(C)(Nc1ccnc(-c2ccc3c(c2)OCO3)n1)C(=O)NCC(F)(F)F` [Compound 74] came in with a Ki of at most 1 µM.

Turning to `COc1ccc(Nc2nc(N)n(-c3ncc(F)c(NCC(=O)NCC(F)(F)F)n3)n2)cc1` [Compound 58], the Ki is 1 to 10 µM.

Take `CC(=O)Nc1nc2ccc(-c3ncc(F)c(N4CCC[C@@H]4C(=O)NCC(F)(F)F)n3)cc2s1` [Compound 92]: the “inhibition of JAK3 … of 50 μM” value is reported as “did not inhibit”.

Consider `CC(C)(Nc1nc(-c2ccc3nc(N)sc3c2)ncc1F)C(=O)NCC(F)(F)F` [Compound 66], for which the Ki is 1 to 10 µM.

As to `CC(C)C(Nc1nc(-c2c[nH]c(C(=O)NCC3CC3)c2)ncc1F)C(=O)NCC(F)(F)F` (stereo not drawn) [Compound 106], the Ki is 10 to 50 µM.

The compound `Nc1cccc(Nc2nc(N)n(-c3ncc(F)c(N4CCCC4C(=O)NCC(F)(F)F)n3)n2)c1` (stereo not drawn) [Compound 57] registered a Ki of 1 to 10 µM.

With `CC(C)NC(=O)c1cc(-c2nccc(N3CCC[C@@H]3C(=O)NCC(F)(F)F)n2)c[nH]1` [Compound 122], the “inhibition of JAK3 … of 50 μM” value is recorded as “did not inhibit”.

Take `CC(C)(Nc1ccnc(-c2ccc3nc(N)sc3c2)n1)C(=O)NCC(F)(F)F` [Compound 79]: the Ki was 1 to 10 µM.

On to `CC(=O)Nc1nc2ccc(-c3ncc(F)c(NC(C)(C)C(=O)NCC(F)(F)F)n3)cc2s1` [Compound 64], for which the Ki lay within 1 to 10 µM.

The compound `CC(C)(Nc1nc(-c2ccc3ncccc3c2)ncc1F)C(=O)NCC(F)(F)F` [Compound 68] had a Ki of at most 1 µM.

As for `O=C(NCC(F)(F)F)[C@H]1CCCN1c1nc(-c2ccc(F)nc2)ncc1F` [Compound 22], the “inhibition of JAK3 … of 50 μM” value is “did not inhibit”.

Regarding `O=C(CCNc1nc(-c2ccc(F)nc2)ncc1F)NCC(F)(F)F` [Compound 13], the “inhibition of JAK3 … of 50 μM” value is reported as “did not inhibit”.

On to `O=C(CCNc1nc(-c2cccnc2F)ncc1F)NCC(F)(F)F` [Compound 12], for which the “inhibition of JAK3 … of 50 μM” value is listed as “did not inhibit”.

Compound `O=C(NCC(F)(F)F)[C@H]1CCCN1c1nc(-c2ccc3nccnc3c2)ncc1F` [Compound 165] gave a Ki of 10 to 50 µM.

Consider `O=C(NCC(F)(F)F)[C@H]1CCCN1c1nc(-c2c[nH]c(C(=O)N3CC=CC3)c2)ncc1F` [Compound 120], for which the Ki was at most 1 µM.

With `Nc1ncccc1-c1ncc(F)c(NCCC(=O)NCC(F)(F)F)n1` [Compound 30], the Ki fell in the range of 1 to 10 µM.

The compound `Nc1nc2ccc(-c3nccc(N4CCC[C@@H]4C(=O)NCC(F)(F)F)n3)cc2s1` [Compound 61] displayed a Ki of 1 to 10 µM.

Take `CC(C)(Nc1ccnc(-c2ccc(=O)[nH]c2)n1)C(=O)NCC(F)(F)F` [Compound 86]: the Ki was in the range of 1 to 10 µM.

With `O=C(NCC(F)(F)F)[C@@H]1CCCN1c1nc(-c2cccnc2)ncc1F` [Compound 26], the Ki was 1 to 10 µM.

The compound `O=C(CNc1nc(-c2cccnc2)ncc1F)NCC(F)(F)F` [Compound 11] came in with a Ki of 1 to 10 µM.

For the compound `O=C(CCNc1nc(-c2cn[nH]c2)ncc1F)NCC(F)(F)F` [Compound 16], the “inhibition of JAK3 … of 50 μM” value was “did not inhibit”.

As to `CC(C)(Nc1ccnc(-c2ccc(O)cc2)n1)C(=O)NCC(F)(F)F` [Compound 144], the Ki is at most 1 µM.

For the compound `CNC(=O)c1cc(-c2ncc(F)c(N3CCC[C@@H]3C(=O)NCC(F)(F)F)n2)c[nH]1` [Compound 115], the Ki fell in the range of 10 to 50 µM.

`O=C(NCC(F)(F)F)[C@H]1CCCN1c1ccnc(-c2ccc3ncsc3c2)n1` [Compound 155] gave a Ki of at most 1 µM.

In the case of `CC(C)(Nc1ccnc(-c2ccc3ncsc3c2)n1)C(=O)NCC(F)(F)F` [Compound 154], the Ki was at most 1 µM.

Values taken from patent US8686143B2, “Compounds useful as inhibitors of Janus kinases” (Vertex Pharmaceuticals Incorporated, priority 2007, dated 2014).
